Data from patent publication US12378178B2, “Oleic acid derivatives as treatments for Friedreich ataxia and inhibitors of ferroptosis” (THE TRUSTEES OF THE UNIVERSITY OF PENNSYLVANIA, priority 2019, dated 2025).
“Also recorded” adds a separate entry of the source.

Columns and labels:
[1] = test system: human FRDA fibroblast line GM4078; assay: Survival of human FRDA fibroblast line GM4078 treated with FAC and BSO; format: cell-based; conditions: for Relative to Oleic Acid (change in survival compared to cells treated with 40 μM oleic acid) / toxicity / activity in dose response: FAC and BSO; for toxicity: compound 40 μM; for activity in dose response: lower concentrations down to 5 μM; for activity: trifluoromethyl ketone and alcohol analogs
Procedure: To test the efficacy of the above compounds, they were tested at least at two different concentrations using human FRDA fibroblast line GM4078 treated with FAC and BSO and the change in survival compared to cells treated with 40 μM oleic acid was measured Table 2 has the results of the compounds tested at 40 μM.

[2] = test system: mouse fibroblast I154F cell lines; assay: Rescue of viability of murine I154F fibroblasts treated with FAC+BSO; conditions: for activity in FAC+BSO assay: following FAC+BSO treatment, concentration not given; for Relative to Oleic Acid: 1 = oleic acid, 0.5 = no rescue
[3] = test system: immortalized myoblast cell line transfected with a frataxin siRNA; assay: Lipid peroxidation in immortalized myoblast cell line with frataxin siRNA knock-down; format: cell-based; conditions: compound 5 μM every 48 h post transfection
Procedure: Knocking-down frataxin in human fibroblasts results in increased lipid peroxidation, which could be easily measured when the cells were also treated with the ferroptosis inducer RSL-3. To test whether OA200R would be efficacious in the knock-down system, an immortalized myoblast cell line was transfected with a frataxin siRNA or a scrambled siRNA control. A 65% protein loss was achieved over 4 days and a statistically significant increase of lipid peroxidation (1.4 fold) compared to the cells transfected with a scrambled control.

[4] = test system: murine fibroblast I154F cells; assay: Lipid peroxidation in murine fibroblast I154F cells; format: cell-based
Procedure: The basal level of lipid peroxides was tested in the murine fibroblast I154F cells compared to the parental line 2F1 and a detectable higher level of lipid peroxides was found in the cells containing a missense frataxin (FIG. 3A).

[5] = test system: human FRDA fibroblasts 3816; assay: Rescue of human FRDA fibroblasts 3816 treated with erastin; format: cell-based; conditions: for survival: 10 μM erastin for 24 h (85% cell death)
lipoxygenases (Lox) = assay: In vitro lipoxygenase activity assay; format: biochemical; conditions: compound at 1 nM and 10 nM; solubility problems precluded higher concentrations
Procedure: Oleic acid has been reported to inhibit soybean lipoxygenase, as well as human 15-lipoxygenase, by binding an allosteric site. […] Whether O[…] was inhibiting lipoxygenase activity was tested using an in vitro assay.

[6] = test system: human FRDA fibroblasts 3816; assay: Rescue of human FRDA fibroblasts 3816 treated with erastin; format: cell-based; conditions: erastin 5 μM; for survival: 48 h (erastin alone 32%)
Procedure: Addition of O[…] at 5 μM was sufficient to increase survival to 50% (1.5 fold) and at 10 μM and 20 μM survival went up to 80 and 84% (2.5 and 2.6 fold) respectively (FIG. 2B).

[7] = test system: immortalized human fibroblasts 3665-T cells; assay: Survival of immortalized human fibroblasts 3665-T treated with FAC and BSO; format: cell-based; conditions: for survival: FAC and BSO (95% cell death)
From the text: Stereospecific activity of the two enantiomers was confirmed using the immortalized human fibroblasts 3665-T cells, a more severe model of FRDA. […] (FIG. 2A).

[8] = test system: murine fibroblast I154F cells; assay: Rescue from erastin-induced ferroptosis, murine I154F fibroblast model; format: cell-based; conditions: 5 μM erastin for 48 h (erastin alone 44%)
PGC1-α = PGC1-α expression in human FRDA fibroblasts GM3816; format: cell-based; conditions: compound 16 μM; after 96 h
Procedure: Oleic acid, as well as other fatty acids of different length and degree of saturation, binds and activates the peroxisome proliferator-activated receptor gamma (PPAR-γ), a key regulator of glucose and lipid metabolism, which up-regulates PGC1-α, among other targets. Pioglitazone, a PPAR-γ agonist is a thiazolidinedione used to treat type-2 diabetes. […] Human FRDA fibroblasts GM3816 were treated with 10 μM pioglitazone and increased PGC1-α expression was measured starting at 48 h. The expression doubled at 96 h, a time frame sufficient for PGC1-α to have an effect in a typical FAC+BSO experiment, whereas 16 μM oleic acid increased PGC1-α expression only 1.4 fold after 96 h.

[9] = test system: healthy human fibroblasts with frataxin knockdown; conditions: earlier work referred to in the text; cited from earlier work

Compound: CCCCCC/C=C\CCCCCCCCC(O)C(F)(F)F (racemic) [[rac]-HA-200]
- Relative to Oleic Acid (change in survival compared to cells treated with 40 μM oleic acid) ([1]; tested at 40 μM): 0.56 ± 0.03

Compound: CCCCCCCC/C=C\CCCCCCCC(O)C(F)(F)F (racemic) [[rac]-OA-200, (Z)-1,1,1-trifluorononadec-10-en-2-ol]
- Relative to Oleic Acid (change in survival compared to cells treated with 40 μM oleic acid) ([1]; 10 μM printed beside the value): 0.67 ± 0.17
- potency in rescuing cell viability compared with oleic acid ([1]; cells treated with FAC and BSO, or with erastin): significantly more potent than oleic acid
- toxicity [1]: slightly toxic
- activity in dose response [1]: active

Compound: CCCCCCCCCC(=O)O [Capric Acid]
- activity in FAC+BSO assay [2]: inactive
- Relative to Oleic Acid ([2]; tested at 40 μM, <0.5 toxic): 0.49 ± 0.09

Compound: CCCCCC/C=C\CCCCCCCCCC(=O)O [Cis-Vaccenic Acid]
- efficacy in FAC+BSO assay ([2]; compound 40 μM): comparable to oleic acid
- Relative to Oleic Acid ([2]; tested at 40 μM, <0.5 toxic): 1.00 ± 0.08

Compound: CCCCCCCC/C=C/CCCCCCCC(=O)O [Elaidic Acid]
- efficacy in FAC+BSO assay ([2]; compound 40 μM): slightly toxic
- efficacy in FAC+BSO assay ([2]; compound 160 μM): somehow effective
- Relative to Oleic Acid ([2]; tested at 40 μM, <0.5 toxic): 0.30 ± 0.08

Compound: CCCCCCCC/C=C\CCCCCCCCCCCC(=O)O [Erucic add]
- efficacy in FAC+BSO assay ([2]; compound 40 μM): comparable to oleic acid
- Relative to Oleic Acid ([2]; tested at 40 μM, <0.5 toxic): 0.93 ± 0.07

Compound: CCCCCCCCCC/C=C\CCCCCCCC(=O)O [Gadoleic acid]
- efficacy in FAC+BSO assay ([2]; compound 40 μM): comparable to oleic acid
- Relative to Oleic Acid ([2]; tested at 40 μM, <0.5 toxic): 0.77 ± 0.16

Compound: CCCCCC/C=C\CCCCCCCCC(=O)C(F)(F)F [HA-210]
- Relative to Oleic Acid (change in survival compared to cells treated with 40 μM oleic acid) ([1]; tested at 40 μM): 0.35 ± 0.02

Compound: CCCCCCCCCCCC(=O)O [Lauric Acid]
- activity in FAC+BSO assay [2]: inactive
- Relative to Oleic Acid ([2]; tested at 40 μM, <0.5 toxic): 0.47 ± 0.12

Compound: CCCCCCCCCCCCCC(=O)O [Myristic Acid]
- Relative to Oleic Acid ([2]; tested at 40 μM, <0.5 toxic): 0.11 ± 0.02

Compound: CCCCCCCC/C=C\CCCCCCC[C@@H](O)C(F)(F)F [OA200R, (R,Z)-1,1,1-trifluorononadec-10-en-2-ol]
- decreased lipid peroxidation [3]: 20%
- concentration at which reduction of lipid peroxidation reached statistical significance [4]: 5 µM
- lipid peroxidation ([4]; basal lipid peroxides): reduced lipid peroxidation in a dose-dependent manner
- survival ([5]; compound 5 μM): 48%
- survival ([5]; compound 10 μM): 87%
- survival ([5]; compound 20 μM): 88%
- Lox enzymatic activity (lipoxygenases (Lox)): did not affect Lox enzymatic activity; also recorded: does not inhibit
- potency of (R)-enantiomer relative to (S)-enantiomer ([1]; rescue of cell viability, assay not given): seven-fold
- activity ([1]; assay not given): activity resides in the (R) enantiomer
- increase of survival ([6]; compound 5 μM, 48 h): 1.5 fold
- survival ([6]; compound 5 μM): 50%
- increase of survival ([6]; compound 10 μM, 48 h): 2.5 fold
- survival ([6]; compound 10 μM): 80%
- increase of survival ([6]; compound 20 μM, 48 h): 2.6 fold
- survival ([6]; compound 20 μM): 84%
- survival ([7]; compound 10 μM): 25%
- survival ([7]; compound 20 μM): 77%
- survival ([7]; compound 40 μM): 95%

Compound: CCCCCCCCC=CCCCCCCCC(=O)NO [OA310]
- Relative to Oleic Acid ([2]; 10 μM): 1.04 ± 0.04

Compound: CCCCCCCCC1OC1CCCCCCCC(=O)O (stereo not shown) [OA-50]
- Relative to Oleic Acid (change in survival compared to cells treated with 40 μM oleic acid) ([1]; tested at 40 μM): 0.15 ± 0.02

Compound: CCCCCCCCC(O)C(O)CCCCCCCC(=O)O (stereo not shown) [OA-81]
- Relative to Oleic Acid (change in survival compared to cells treated with 40 μM oleic acid) ([1]; tested at 40 μM): 0.14 ± 0.03

Compound: CCCCCCCCC1OC(C)(C)OC1CCCCCCCC(=O)O (stereo not shown) [OA-90]
- Relative to Oleic Acid (change in survival compared to cells treated with 40 μM oleic acid) ([1]; tested at 40 μM): 0.05 ± 0.02

Compound: CCCCCCCCC1OC2(CCCCC2)OC1CCCCCCCC(=O)O (stereo not shown) [OA-95]
- Relative to Oleic Acid (change in survival compared to cells treated with 40 μM oleic acid) ([1]; tested at 40 μM): 0.24 ± 0.04

Compound: CCCCCCCC/C=C\CCCCCCCC(=O)C(F)(F)F [OA-210, (Z)-1,1,1-trifluorononadec-10-en-2-one]
- Relative to Oleic Acid (change in survival compared to cells treated with 40 μM oleic acid) ([1]; 10 μM printed beside the value): 0.52 ± 0.13
- toxicity [1]: slightly toxic
- activity in dose response [1]: active

Compound: CCCCCCCC/C=C\CCCCCCCC(N)=O [Oleic Acid NH2]
- Relative to Oleic Acid ([2]; tested at 40 μM, <0.5 toxic): 0.79 ± 0.13

Compound: CCCCCCCC/C=C\CCCCCCCC(=O)OCC [Oleic Acid OEt]
- Relative to Oleic Acid ([2]; tested at 40 μM, <0.5 toxic): 0.77 ± 0.18

Compound: CCCCCCCC/C=C\CCCCCCCC(=O)OC [Oleic Acid OMe]
- Relative to Oleic Acid ([2]; tested at 40 μM, <0.5 toxic): 0.95 ± 0.12

Compound: CCCCCCCC/C=C\CCCCCCCC(=O)O [Oleic Acid]
- rescue of cell viability ([5]; compound 40 μM, 10 μM erastin for 24 h): did not rescue cell viability
- cell survival ([8]; compound 5 μM): 49%
- cell survival ([8]; compound 10 μM): 55%
- cell survival ([8]; compound 20 μM): 65%
- effect on cell survival ([2]; compound 16 μM, FAC+BSO): doubled cell survival
- efficacy in FAC+BSO assay ([2]; compound 40 μM): doubled survival
- EC50 ([2]; read-out: EC50 in the FAC+BSO in mouse fibroblasts assay, FAC+BSO): 23 µM
- Relative to Oleic Acid ([2]; tested at 40 μM, <0.5 toxic): 1.03 ± 0.04
- increase of survival ([6]; compound 20 μM, 48 h): 1.5 fold
- increase of PGC1-α expression (PGC1-α): 1.4 fold

Compound: CCCCCCCCCCCCCCCC(=O)O [Palmitic Acid]
- Relative to Oleic Acid ([2]; tested at 40 μM, <0.5 toxic): 0.18 ± 0.07

Compound: CCCCCC/C=C\CCCCCCCC(=O)O [Palmitoleic Acid]
- Relative to Oleic Acid ([2]; 20 μM): 0.73 ± 0.04
- efficacy in FAC+BSO assay ([2]; compound 40 μM): comparable to oleic acid
- Relative to Oleic Acid ([2]; tested at 40 μM, <0.5 toxic): 0.77 ± 0.03

Compound: CCCCCCCCCCC/C=C\CCCCC(=O)O [Petrosenilic Acid]
- efficacy in FAC+BSO assay ([2]; compound 40 μM): comparable to oleic acid
- Relative to Oleic Acid ([2]; tested at 40 μM, <0.5 toxic): 0.74 ± 0.04

Compound: CCCCCCCC/C=C\CCCCCCC[C@H](O)C(F)(F)F [S-isomer, (S,Z)-1,1,1-trifluorononadec-10-en-2-ol]
- activity ([5]; any concentration, 10 μM erastin for 24 h): inactive
- activity ([1]; assay not given): inactive
- activity ([6]; compound between 20 and 5 μM, 48 h): no activity
- efficacy ([7]; compound 5 μM, FAC and BSO): inefficacious
- survival ([7]; compound 20 μM): 10%
- survival ([7]; compound 40 μM): 22%

Compound: CCOC(=O)c1ccc(NC2CCCCC2)c(NCc2ccccc2)c1 [SRS11-92]
- cell death associated with frataxin knockdown [9]: decreased the cell death

Compound: CCCCCCCCCCCCCCCCCC(=O)O [Stearic Acid]
- effect on cell survival ([2]; compound 16 μM, FAC+BSO): no effect
- Relative to Oleic Acid ([2]; tested at 40 μM, <0.5 toxic): 0.50 ± 0.06

Compound: CCCCC/C=C\C/C=C\CCCCCCCC(=O)O [linoleic acid]
- cell viability ([2]; compound 16 μM, FAC+BSO (alone 40% of control cells)): 30 % of control cells

Compound: CCCCC/C=C\C/C=C\C/C=C\CCCCC(=O)O [γ-linolenic Acid]
- activity in FAC+BSO assay [2]: increased cell death
- Relative to Oleic Acid ([2]; tested at 40 μM, <0.5 toxic): 0.16 ± 0.02

Compound: Heptadecenoic acid
- Relative to Oleic Acid ([2]; 20 μM): 0.7 ± 0.05
- Relative to Oleic Acid ([2]; tested at 40 μM, <0.5 toxic): 0.83 ± 0.05
